Laboratory results reported in ChEMBL document CHEMBL1147775, “N-(4-{[4-(1H-Benzoimidazol-2-yl)-arylamino]-methyl}-phenyl)-benzamide derivatives as small molecule heparanase inhibitors” (Bioorg Med Chem Lett, 2006).
Each block holds one molecule with its values, some of them ahead of it.

Experiments:
[1] = biological target: T1, Heparanase (Homo sapiens) (UniProt Q9Y251); test: Inhibitory activity against heparanase from human platelets at 25 uM
T1 sequence (whole entry): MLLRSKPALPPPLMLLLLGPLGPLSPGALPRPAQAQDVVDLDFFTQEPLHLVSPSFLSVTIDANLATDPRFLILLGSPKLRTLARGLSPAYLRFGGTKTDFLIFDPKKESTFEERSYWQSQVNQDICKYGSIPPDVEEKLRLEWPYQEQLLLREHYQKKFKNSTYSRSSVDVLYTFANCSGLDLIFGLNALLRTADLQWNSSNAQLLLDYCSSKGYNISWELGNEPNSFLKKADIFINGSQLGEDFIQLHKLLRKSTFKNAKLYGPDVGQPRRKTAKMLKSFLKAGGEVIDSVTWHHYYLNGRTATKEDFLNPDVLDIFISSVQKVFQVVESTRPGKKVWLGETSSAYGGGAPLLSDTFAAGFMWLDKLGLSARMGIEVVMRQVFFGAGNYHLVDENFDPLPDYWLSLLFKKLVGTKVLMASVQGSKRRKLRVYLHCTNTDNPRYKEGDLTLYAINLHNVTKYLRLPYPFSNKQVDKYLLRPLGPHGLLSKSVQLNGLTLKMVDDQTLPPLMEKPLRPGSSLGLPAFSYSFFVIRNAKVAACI

Heparanase = biological target: T2, Heparanase (Homo sapiens, UniProt Q9Y251); test: Inhibitory activity against heparanase from human platelets
T2 sequence (Q9Y251 whole entry): T1 sequence (whole entry)

[2] = biological target: T1, Heparanase (Homo sapiens); test: Inhibitory activity against heparanase from human platelets at 0.83 uM
[3] = Plasma concentration in mice after 4 hrs of administration of 30 mg/kg, po; assay type: ADME, organism-based; parameters: dose 30 mg/kg, route oral; conditions: mouse
[4] = Plasma concentration in mice after 1 hr of administration of 30 mg/kg, po; assay type: ADME, organism-based; parameters: dose 30 mg/kg, route oral; conditions: mouse
[5] = Plasma concentration in mice after 1 hr of administration of 50 mg/kg, ip; assay type: ADME, organism-based; parameters: dose 50 mg/kg, route intraperitoneal; conditions: mouse
[6] = Plasma concentration in mice after 4 hrs of administration of 50 mg/kg, ip; assay type: ADME, organism-based; parameters: dose 50 mg/kg, route intraperitoneal; conditions: mouse

Structure (SMILES): CCOc1ccc(C(=O)Nc2ccc(-c3nc4cc(Cl)c(Cl)cc4[nH]3)cc2)cc1Br
inhibition [1]: 30%

Structure (SMILES): COc1ccc(C(=O)Nc2ccc(CNc3cccc(-c4nc5ccccc5[nH]4)c3)cc2)cc1Br
inhibition [2]: < 10%

Structure (SMILES): CCOc1ccc(C(=O)Nc2ccc(-c3nc4cc(OC)c(OC)cc4[nH]3)cc2)cc1Br
inhibition [1]: 35%

Structure (SMILES): COc1ccc(CNc2ccc(-c3nc4ccccc4[nH]3)cc2)cc1Br
IC50 (Heparanase): > 15 µM

Structure (SMILES): COc1ccc(CC(=O)Nc2ccc(-c3nc4ccccc4[nH]3)cc2)cc1Br
IC50 (Heparanase): > 15 µM

Structure (SMILES): COc1ccc(S(=O)(=O)Nc2ccc(-c3nc4ccccc4[nH]3)cc2)cc1Br
IC50 (Heparanase): > 15 µM

Structure (SMILES): CCOc1ccc(C(=O)Nc2ccc(-c3nc4cc(OC)ccc4[nH]3)cc2)cc1Br
inhibition [1]: 73%

Structure (SMILES): COc1ccc(C(=O)Nc2ccc(CNc3ccc(Cc4nc5ccccc5[nH]4)cc3)cc2)cc1Br
inhibition [2]: < 10%

Structure (SMILES): COc1ccc(C(=O)Nc2ccc(CNc3ccc(-c4nc5ccccc5[nH]4)cn3)cc2)cc1Br
concentration at 4 h [3]: 5500 nM
concentration at 1 h [4]: 3800 nM

Structure (SMILES): COc1ccc(C(=O)Nc2cccc(CNc3ccc(-c4nc5ccccc5[nH]4)cc3)c2)cc1Br
inhibition [2]: < 10%

Structure (SMILES): COc1ccc(C(=O)N(C)c2ccc(-c3nc4ccccc4[nH]3)cc2)cc1Br
IC50 (Heparanase): > 15 µM

Structure (SMILES): CCOc1ccc(C(=O)Nc2ccc(-c3nc4cc(C)c(Cl)cc4[nH]3)cc2)cc1Br
inhibition [1]: 30%

Second part, the molecule after the results:

IC50 (Heparanase): > 15 µM
Structure (SMILES): COc1ccc(NC(=O)c2ccc(-c3nc4ccccc4[nH]3)cc2)cc1Br

IC50 (Heparanase): > 15 µM
Structure (SMILES): COc1ccc(C(=O)Nc2ccc(-c3nc4ccccc4[nH]3)cc2)cc1Cl

IC50 (Heparanase): > 15 µM
Structure (SMILES): COc1ccc(C(=O)Nc2ccc(-c3nc4ccccc4[nH]3)cc2)cc1F

concentration at 1 h [5]: 2240 nM
concentration at 4 h [6]: 670 nM
Structure (SMILES): COc1ccc(C(=O)Nc2ccc(-c3nc4ccccc4[nH]3)cc2)cc1Br

concentration at 1 h [5]: 530 nM
concentration at 4 h [6]: 380 nM
Structure (SMILES): CCOc1ccc(C(=O)Nc2ccc(-c3nc4ccccc4[nH]3)cc2)cc1Br
